Source: paper PMC2688476, “Low affinity glucocorticoid binding site ligands as potential anti-fibrogenics” (Comparative Hepatology, 2009)

Columns and labels:
human myofibroblasts = test: Fibrogenic marker mRNA transcripts (TGFβ, TIMP1, collagen 1A1) in human myofibroblasts, qRT-PCR; assay type: cell-based; details: treatment for 19 days
From the text: Quantitative transcript expression was examined after reverse transcription (using a Taqman reverse transcription kit (Applied Biosystems)) using a PE Applied Biosystems ABI7700 and PE Applied Biosystems Gene Expression Assay™, incorporating sequence-specific forward, reverse and fluorescently labelled probes (see Table 2).

CYP3A1/3A23 = test: Screening for PXR activators in rat hepatocytes via CYP3A induction (Western blot); assay type: cell-based
human HSCs = test: Human HSC trans-differentiation/proliferation (confluence, α-sma); assay type: cell-based; details: confluence at day 12
Experimental: (§1) Figure 5 Screening for inhibitors of trans-differentiation in rat and human HSCs – Part 1. Rat HSCs were isolated and cultured for 2 days (T0) whereupon cells were treated with the indicated compound as outlined in methods section. After 9 days, cells were analyzed by Western blotting for α-smooth muscle actin (α-sma). Each lane contains 10 μg total protein/lane, results typical of at least 3 separate experiments (a). Human HSCs were treated with the indicated compound and confluence determined in randomly selected fields. Data are the mean and standard deviation confluence at day 12 of 3 separate treatment dishes from the same donor, typical of at least 3 separate donors (b).
Figure 6 Screening for inhibitors of trans-differentiation in rat and human HSCs – Part 2. Photomicrographs of human HSCs at day 12 of culture with the indicated treatment (a); levels of expression of α-smooth muscle actin (α-sma) (b) and levels of expression of fibrogenic marker mRNA transcripts in human HSCs after treatment selected compounds for 19 days. Data are the mean and standard deviation relative transcript level from 3 separate treatments on cells from the same donor, typical of at least 3 separate donors (c).
(§2) HSCs were isolated from rats (250–300 g body weight, Harlan, UK) by sequential pronase/collagenase perfusion of the liver followed by density gradient centrifugation and elutriation as previously outlined. Human HSCs were isolated by an essentially similar procedure using discarded tissue from patients undergoing a hepatectomy with patient consent and ethical approval by the Grampian Regional Ethical Committee. HSCs were seeded onto plastic culture dishes and cultured in Dulbecco's modified Eagle Medium (DMEM) containing 4.5 g/l of glucose and supplemented with 5% or 16% (v/v) fetal calf serum (for rat or human respectively), […] penicillin, 80 μg/ml streptomycin and 32 μg/ml gentamycin. Additional treatments were made by addition of compounds in an ethanol vehicle (stock solutions at 1000× final concentration). Ethanol at 0.1% (v/v) acted as control. Frequency of treatment (3 treatments per week/2 medium changes per week), as previously described.

CYP3A4 = test: Screening for PXR activators in human hepatocytes via CYP3A induction (Western blot); assay type: cell-based
[1] = Pilot toxicity study in adult male rats; assay type: in vivo, rat; details: 3 days at up to 100 mg/kg body weight i.p.; 24 hours after final treatment
Experimental: Since there was no information in the literature regarding any potential adverse effects of 4A3COOHmethyl administration, a pilot toxicity study was initially undertaken, in which adult male rats were administered 4A3COOHmethyl for 3 days at up to 100 mg/kg body weight by i.p. injection.

[2] = system: rat CCl4 model of liver fibrosis; test: Rat CCl4 model of liver fibrosis; assay type: in vivo; details: 20 mg/kg i.p. weekly, 8 weeks CCl4
Experimental: To examine the effects of 4A3COOHmethyl on fibrosis, adult male rats were treated with 20 mg/kg body weight by i.p. injection every week during an 8 week twice weekly treatment with CCl4, to generate liver fibrosis. A reduced dose of 20 mg/kg body weight was chosen because the compound was to be administered to rats with compromised liver function. To avoid potential interactions with CCl4, toxicity (i.e., reductions in CCl4 hepatotoxicity that could be misinterpreted as anti-fibrogenic effects), 4A3COOHmethyl was not administered within a 48 hour period of CCl4 administration. Previous work has established that a similar dose of PCN – using the same dosing regimen – is sufficient to modulate fibrosis in animal models of fibrosis.
Figure 7 4A3COOHmethyl administration and liver fibrosis in a rat CCl4 model of liver fibrosis. […] Mean and standard deviation serum ALT (a); Mean and standard deviation collagen 1A1 mRNA levels (b); typical views of liver sections stained for sirius red, with a 100 μm scale bar (b); quantitative image analysis for fibrosis – data are the mean and standard deviation percentage sirius red staining from at least 4 separate animals in each treatment with at least 10 randomly selected fields examined for each animal (c). […]

[3] = target: low affinity glucocorticoid binding site (LAGS) in rat liver microsomes (Rattus norvegicus, UniProt P70580); test: Competition with radiolabelled dexamethasone for specific binding to rat liver microsomes (LAGS activity)
Sequence of low affinity glucocorticoid binding site (LAGS) in rat liver microsomes (P70580 2-195): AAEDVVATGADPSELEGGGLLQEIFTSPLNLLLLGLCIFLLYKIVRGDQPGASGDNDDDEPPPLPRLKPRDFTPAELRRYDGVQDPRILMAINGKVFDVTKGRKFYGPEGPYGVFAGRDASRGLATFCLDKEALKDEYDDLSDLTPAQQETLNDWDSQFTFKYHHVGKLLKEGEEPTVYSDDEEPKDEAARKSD
Experimental: A small volume of each incubation was removed to determine the total ligand concentration ([L0]) prior to removal of free unbound ligand by dextran/charcoal adsorption. […] Free ligand concentration at equilibrium was calculated by subtracting specifically bound ligand at equilibrium from the total ligand concentration (i.e. [L0] - [LRe]) and assumes receptor-ligand stoichiometry of 1:1.
In brief, rats were anaesthetized with pentobarbital and a 16G cannula inserted into the hepatic portal vein and secured. […] The liver was then excised and chopped roughly with ice-cooled TS buffer (10 mM Tris/HCl pH 7.4 containing 250 mM sucrose) and disrupted using a Potter-Elvehjem homogenisor. The resultant homogenate was then centrifuged at 12,000 g for 20 minutes at 4°C and the supernatant retained and centrifuged at 100,000 g for 60 minutes at 4°C. The resultant "microsomal" pellet was re-suspended in fresh TS buffer and re-centrifuged at 100,000 g to obtain a washed microsomal pellet. […] After overnight incubation on ice, free ligand was removed by charcoal dextran adsorption and bound radioligand determined in supernatants by liquid scintillation, essentially as previously described.

rat HSCs = test: Rat HSC-to-myofibroblast trans-differentiation (α-smooth muscle actin Western blot); assay type: cell-based; details: α-sma Western blot after 9 days of treatment
Experimental: as §1, §2

rPGRMC1 = target: T1, rPGRMC1 (Rattus norvegicus, UniProt P70580); test: Dexamethasone binding competition in COS-7 cells transfected with pSG5-rPGRMC1; details: unlabelled competitor, Fig. 2e
T1 construct: the full length cDNA for rPGRMC1 was cloned from rat myofibroblasts and expressed in COS-7 cells; expressed in transfected cells; host or cells: COS-7 cells transfected with pSG5-rPGRMC1
T1 sequence (P70580 whole entry): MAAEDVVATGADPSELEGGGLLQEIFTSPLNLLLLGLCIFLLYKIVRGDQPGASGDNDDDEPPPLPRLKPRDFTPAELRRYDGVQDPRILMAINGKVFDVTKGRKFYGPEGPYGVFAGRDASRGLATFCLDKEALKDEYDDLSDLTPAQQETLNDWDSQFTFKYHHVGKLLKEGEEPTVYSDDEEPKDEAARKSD
Experimental: Western blot for rPGRMC1 in various cell fractions using the anti-IZ Ab in COS-7 cells transfected with the indicated construct. All lanes were loaded with 10 μg protein/lane. Note, HC5 is a truncated form of rPGRMC1 cloned from rat kidney (a). Western blot for rPGRMC1 using the anti-IZ Ab and CYP2E1 (lower blot). Rat hepatocytes were cultured for 24 hours to allow attachment (T0) and then treated for 24 hours with the indicated ligand or ethanol vehicle prior to analysis. Each lane contains 10 μg total protein/well, typical of 3 separate experiments (b). […] The percentage of cells that stained positive for beta galactosidase activity (grey bars) was determined in situ in separate wells by examining at least 5 randomly selected low power fields. […] The percent of binding in the presence of unlabelled competitors was determined after subtraction of non-specific binding. […]
COS-7 cells were transfected at 30–50% confluency using Effectene transfection reagent (Qiagen, Southampton, UK) essentially according to the manufacturer's instructions with either pSG5 empty vector, pSG5-rPGRMC1 or the β-galactosidase-encoding pcDNA3.1e/lacZ vector (Invitrogen, Paisley, UK). Thirty hours after transfection, β-galactosidase activity was determined in fixed cells,in situ. […]

[4] = target: progesterone binding protein in pig liver microsomes; details: read-out: IC50% for competition for progesterone binding protein; cited from earlier work
[5] = 10 μM for 24 hours (PCN 20 μM), Western blot

SMILES: COC(=O)[C@H]1CC[C@H]2[C@@H]3CCC4=CC(=O)CC[C@]4(C)[C@H]3CC[C@]12C [4A3COOHmethyl, 4 androstene-3-one 17β-carboxylic acid methyl ester]
- expression of TGFβ, TIMP1 and collagen 1A1 mRNAs in human myofibroblasts (human myofibroblasts): inhibited the expression of all mRNAs
- activity as a PXR activator, rat (CYP3A1/3A23; rat): no activity
- inhibitory activity on human HSC trans-differentiation (human HSCs): significant inhibitory activity
- activity as a PXR activator, human (CYP3A4; human): no activity
- adverse effects (liver serum enzyme levels and liver pathology) [1]: no adverse effects were observed
- fibrosis severity (α-sma staining, collagen 1a1 mRNA, sirius red staining) [2]: did not significantly affect
- serum levels of ALT [2]: did not affect
- IC50 ([3]; read-out: IC50% (competition of substituted progestins for binding to rat liver microsomes), Additional file 1, vs radiolabelled dexamethasone): 100 nM
- inhibition of rat HSC trans-differentiation (rat HSCs): effective

SMILES: CC(=O)[C@H]1CC[C@H]2[C@@H]3CCC4=CC(=O)CC[C@]4(C)[C@H]3[C@@H](O)C[C@]12C [11β-hydroxyprogesterone]
- inhibitory activity on human HSC trans-differentiation (human HSCs): significant inhibitory activity

SMILES: CC(=O)[C@H]1[C@H](C#N)C[C@H]2[C@@H]3CC=C4C[C@@H](O)CC[C@]4(C)[C@H]3CC[C@@]21C [PCN, pregnenolone 16α carbonitrile]
- CYP2E expression in rat hepatocytes (CYP3A1/3A23; [5]): no affect
- CYP3A1/3A23 expression (induction) in rat hepatocytes (CYP3A1/3A23; [5]): induced
- inhibition of rat HSC trans-differentiation (rat HSCs): inhibited
- competition with dexamethasone for binding to COS-7 cell extracts over-expressing rPGRMC1 (rPGRMC1): significant competition

SMILES: C[C@@H]1C[C@H]2[C@@H]3CCC4=CC(=O)C=C[C@]4(C)[C@@]3(F)[C@@H](O)C[C@]2(C)[C@@]1(O)C(=O)CO [dexamethasone, reference compound]
- IC50 [4]: > 100000 nM
- maximal binding site concentration ([3]; radiolabelled dexamethasone, rat liver microsomes): 8.3 pmoles/mg of microsomal protein

SMILES: C[C@H]1C[C@@H]2[C@H]([C@@H](O)C[C@@]3(C)[C@H]2CC[C@]3(O)C(=O)CO)[C@@]2(C)C=CC(=O)C=C12 [methylprednisolone, reference compound]
- CYP3A4 expression (induction) in human hepatocytes (CYP3A4; 24 hours treatment, Western blot): evidence of induction

SMILES: CC(=O)[C@H]1CC[C@H]2[C@@H]3CCC4=CC(=O)CC[C@]4(C)[C@H]3CC[C@]12C [progesterone, reference compound]
- inhibitory activity on human HSC trans-differentiation (human HSCs): significant inhibitory activity
- competition for dexamethasone binding to rat liver microsomes (in words) ([3]; rat liver microsomes): competed
- inhibition of rat HSC trans-differentiation (rat HSCs): markedly inhibited

SMILES: CO[C@H]1/C=C/O[C@@]2(C)Oc3c(C)c(O)c4c(O)c(c(/C=N/N5CCN(C)CC5)c(O)c4c3C2=O)NC(=O)/C(C)=C\C=C\[C@H](C)[C@H](O)[C@@H](C)[C@@H](O)[C@@H](C)[C@H](OC(C)=O)[C@@H]1C [rifampicin, reference compound]
- expression of TGFβ, TIMP1 and collagen 1A1 mRNAs in human myofibroblasts (human myofibroblasts): inhibited the expression of all mRNAs
- inhibitory activity on human HSC trans-differentiation (human HSCs): significant inhibitory activity
